Legend:
breast cancer = conditions: Cancer Research, Vol. 42, Suppl. 8:3261s (1982); cited from earlier work
aromatase = target: T1, aromatase (Rattus norvegicus, UniProt P22443); assay: Aromatase inhibition in the rat ovarian microsome assay; assay type: biochemical; conditions: substrate (androstenedione) concentration 0.1 μM; rat ovarian microsomes
T1 construct: ovarian microsomes are obtained from rats treated with pregnant mares serum gonadotropin; from tissue; host or cells: ovarian microsomes from rats treated with pregnant mares serum gonadotropin
T1 sequence (P22443 1-508): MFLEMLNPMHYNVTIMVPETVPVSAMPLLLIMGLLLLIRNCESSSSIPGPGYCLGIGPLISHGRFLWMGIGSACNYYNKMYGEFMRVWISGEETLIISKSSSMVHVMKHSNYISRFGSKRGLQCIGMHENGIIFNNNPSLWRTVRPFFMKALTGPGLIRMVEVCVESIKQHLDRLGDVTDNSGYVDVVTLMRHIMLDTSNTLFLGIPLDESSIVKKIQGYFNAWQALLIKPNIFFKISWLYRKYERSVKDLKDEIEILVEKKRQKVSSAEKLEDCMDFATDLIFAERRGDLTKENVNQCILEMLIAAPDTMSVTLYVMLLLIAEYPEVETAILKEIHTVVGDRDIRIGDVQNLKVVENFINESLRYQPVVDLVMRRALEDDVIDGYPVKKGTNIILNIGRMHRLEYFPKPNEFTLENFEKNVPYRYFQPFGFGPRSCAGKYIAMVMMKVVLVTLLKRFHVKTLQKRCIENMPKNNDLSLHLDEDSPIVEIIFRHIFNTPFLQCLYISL
Experimental: In this test system, ovarian microsomes are obtained from rats treated with pregnant mares serum gonadotropin. Test compounds are added to reaction vials containing 0.1 μM 4-androstene-3,17-dione, 100,000 dpm 1,2[^3 H]-androstenedione, the microsomes and a NADPH generating system. The concentrations of the inhibitors tested ranged between 0.005 and 10 μM.

estrogen synthesis = assay: Estrogen synthesis inhibition in rats (uterine weight and ovarian steroid concentrations); assay type: in vivo, Wistar rats; conditions: seven days
Experimental: By virtue of their ability to inhibit the enzyme aromatase, the compounds of this invention are able to inhibit the synthesis of estrogens in mammals, thereby making the compounds useful in the treatment of estrogen-dependent diseases, such as breast cancer.
Immature female Wistar rats (44-55 grams) were divided into control and test groups of 5-8 animals each. Test compounds were administered for seven days as a component of the diet. Control animals received diet without the test compound. Beginning on the fourth day of the test, all animals treated with the test compound and one half of the control animals were given a subcutaneous injection of 1.0 mg of testosterone propionate in corn oil. The remaining control animals received only an equivalent volume of corn oil. On the seventh day of the test, rats treated with testosterone propionate were injected subcutaneously with 100 μCi of [^3 H]-testosterone in 50 μl of 3:1 (v/v) saline-ethanol.
After two hours, the animals were killed by decapitation. Uteri were isolated, trimmed of extraneous connective tissue, and weighed. […] In the control animals treated with testosterone propionate, estrogens produced by aromatization stimulated the uterus resulting in an increase in weight. […] Ovaries from rats treated with [^3 H]-testosterone were excised, cleaned of extraneous tissue, and homogenized in 2.5 ml of a 1.0 mM potassium phosphate buffer containing 3.0 mM MgCl2.6H2 O, 320 mM sucrose, and 0.25% Triton X-100 (polyethylene glycol p-isooctyl phenyl ether, Rohm and Haas) at pH 6.5. The ovarian steroids were extracted with 1.5 ml of 9:1 (v/v) toluene/ethanol to which had been added 25 to 100 mcg each of unlabelled estradiol, estriol, and estrone, and approximately 1000 dpm of [^14 C]-estradiol. The samples were vortexed, centrifuged at 500×g for 10 minutes, and the organic phase was transferred to a conical vial. Two additional extractions were performed on the residue in the same way. The pooled organic extracts were evaporated for subsequent thin-layer chromatography.
Ovarian proteins were precipitated by the addition of 5.0 ml of ethanol to the remaining aqueous phase. […] Protein was determined according to the method of Bradford, Analytical Biochemistry, 72, 248 (1976). […]
The visible spots were marked and the plates were sprayed with primulin (0.001% in 4:1 v/v acetone/water) according to the method of Wright, J. Chromatography, 59, 220 (1971) which allowed for the identification of additional steroids under 365 nm UV light. […] The organic solvent was evaporated and 10.0 ml of scintillation fluid (Beckman Ready Solv-NA) was added to the vials. Samples were analyzed by liquid scintillation spectrometry. […] Steroid concentrations are expressed as femtomoles per milligram protein.

## CCC1(c2ccc(N)cc2)CCC(=O)NC1=O (stereo not shown) [aminoglutethimide]
Breast cancer
  Effect in treatment of breast cancer: beneficial effect

## C[C@]12C=CC(=O)C=C1CC[C@@H]1[C@@H]2CC[C@]2(C)OC(=O)CC[C@@H]12 [testolactone]
Breast cancer
  Effect in treatment of breast cancer: beneficial effect

## OC(c1ccccc1)(c1ccccc1)c1ccns1 [Example 2, α,α-Diphenyl-5-isothiazolemethanol]
aromatase
  EC50: 4.45 µM

## OC(c1ccc(Cl)cc1)(c1ccc(Cl)cc1)c1ccns1 [Example 1, α,α-Bis(4-chlorophenyl)-5-isothiazolemethanol]
Estrogen synthesis; 200 ppm in feed (approximately 20 mg/kg/day), testosterone propionate-treated immature female Wistar rats, 5 animals, ^+ p < 0.05 vs testosterone-treated control (203.4)
  Mean Uterine Weight: 110.8 mg
Estrogen synthesis; ovaries, 200 ppm in feed, [3H]-testosterone, ^+ p < 0.05 vs testosterone-treated control (0.25)
  Mean Steroid Concentration, estriol: 0.88 femtomoles per milligram of protein
Estrogen synthesis; ovaries, 200 ppm in feed, [3H]-testosterone, testosterone-treated control 0.19
  Mean Steroid Concentration, estrone: 0.44 femtomoles per milligram of protein
Estrogen synthesis; ovaries, 200 ppm in feed, [3H]-testosterone, testosterone-treated control 1.70
  Mean Steroid Concentration, estradiol: 1.18 femtomoles per milligram of protein
